Results taken from PMC12064818, “A general assay platform to study protein pharmacology using ligand-dependent structural dynamics” (Nature Communications, 2025).

Molecular target: T1, FLuc-C-HiBiT (Photinus pyralis, UniProt P08659)
T1 construct: firefly luciferase with C-terminal HiBiT tag, E. coli expressed
Assay: biochemical
Settings: enzyme activity, 10 uM ATP; read-out: IC50 or SDR50 (mM) / FLuc E

T1 sequence (P08659 whole entry, looked up): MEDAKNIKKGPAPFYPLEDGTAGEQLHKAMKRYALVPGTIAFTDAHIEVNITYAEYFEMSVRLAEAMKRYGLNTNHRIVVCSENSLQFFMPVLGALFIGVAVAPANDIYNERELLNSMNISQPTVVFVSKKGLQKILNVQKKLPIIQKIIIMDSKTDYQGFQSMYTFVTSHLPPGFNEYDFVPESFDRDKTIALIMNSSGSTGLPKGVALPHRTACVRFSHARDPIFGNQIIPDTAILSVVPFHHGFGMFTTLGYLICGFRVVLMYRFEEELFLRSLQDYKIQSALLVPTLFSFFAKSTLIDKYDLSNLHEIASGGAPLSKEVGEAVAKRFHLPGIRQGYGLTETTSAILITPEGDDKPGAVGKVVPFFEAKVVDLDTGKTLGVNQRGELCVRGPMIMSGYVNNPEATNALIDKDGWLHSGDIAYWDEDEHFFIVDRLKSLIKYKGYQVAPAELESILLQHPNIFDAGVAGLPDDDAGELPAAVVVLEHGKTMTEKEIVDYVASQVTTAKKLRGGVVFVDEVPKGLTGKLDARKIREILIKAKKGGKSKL

Compound | IC50
Cc1ccc(-c2ncc3c(n2)OCCN(Cc2ccc(F)cc2F)C3=O)cc1 [NCGC00413538-01] | > 0.03 mM
Cc1ccc(-c2ncc3c(n2)OCCN(C)C3=O)c(C)c1 [NCGC00413561-01] | 0.0226 mM
O=C1c2cnc(-c3ccccc3)nc2OCCN1Cc1ccccc1 [NCGC00413632-01] | > 0.03 mM
OC1CN(Cc2ccc(-c3cnc4c(OCc5ccccc5)nccn34)cc2)C1 [NCGC00414051-01] | 0.0202 mM
COc1ccc(CN2CC(COc3ccccc3)C3(C2)CN(c2ccccc2)C3)cc1O (stereo not shown) [NCGC00415956-01] | > 0.03 mM
CCOCC1(C)COc2ccc(C(=O)Nc3ccccc3)cc2N1 (stereo not shown) [NCGC00416079-01] | 0.018 mM
CCOCC1(C)COc2ccc(C(=O)Nc3ccc(Cl)cc3)cc2N1 (stereo not shown) [NCGC00416138-01] | 0.018 mM
COc1cc2c(cc1-c1ccc(CO)cc1)NC(=O)C21CCN(C)CC1 [NCGC00416803-01] | 0.0202 mM
COc1ccc(Nc2cc3c(nc2OC)nc(CCc2ccccc2)n3C)cn1 [NCGC00417814-01] | 0.0202 mM
Cc1cc(-c2cccc(COc3ccc4c(cnn4CC[S+](C)(=O)[O-])c3)c2)ccn1 [NCGC00418048-01] | 0.018 mM
Cn1cc(-c2cccc(COc3ccc4c(cnn4CC[S+](C)(=O)[O-])c3)c2)cn1 [NCGC00418049-01] | 0.018 mM
COc1cccc(F)c1-c1ccc(COc2ccc3c(cnn3CCC(=O)O)c2)cc1 [NCGC00418057-01] | 0.0202 mM
COc1cc(F)ccc1-c1ccc(COc2ccc3c(cnn3CCC(=O)O)c2)cc1 [NCGC00418071-01] | 0.018 mM
COc1ccc(F)cc1-c1ccc(COc2ccc3c(cnn3CCC(=O)O)c2)cc1 [NCGC00418072-01] | 0.018 mM
Cc1ccc(F)cc1-c1ccc(COc2ccc3c(cnn3CCC(=O)O)c2)cc1 [NCGC00418121-01] | 0.018 mM
CC(C)c1cnc(N2CCC(COc3ccc4c(cnn4CCC(=O)O)c3)CC2)nc1 [NCGC00418130-01] | 0.0202 mM
COc1cc(Cl)ccc1-c1ccc(COc2ccc3c(cnn3CCC(=O)O)c2)cc1 [NCGC00418159-01] | 0.0202 mM
Cc1ccccc1-c1cccc(COc2cnc3c(ccn3CC(=O)O)c2)c1 [NCGC00418175-01] | 0.018 mM
CC(C)Oc1cccc(-c2cccc(COc3cnc4c(ccn4CC(=O)O)c3)c2)c1 [NCGC00418183-01] | 0.018 mM
COc1ccc(-c2cccc(COc3cnc4c(ccn4CC(=O)O)c3)c2)c(C)c1 [NCGC00418229-01] | > 0.03 mM
Cc1ccc(-c2cccc(COc3cnc4c(ccn4CC(=O)O)c3)c2)cc1C [NCGC00418247-01] | 0.018 mM
Cc1ccc(-c2cccc(COc3cnc4c(ccn4CC(=O)O)c3)c2)c(C)c1 [NCGC00418282-01] | > 0.03 mM
O=C(Nc1nc2ccccc2s1)c1ccc2c(c1)OCCN(CCC(F)(F)F)C2 [NCGC00418456-01] | 0.0202 mM
CN1Cc2ccc(C(=O)NCCOc3ccccc3)cc2OCC1=O [NCGC00418504-01] | 0.0202 mM

Now from value to molecule:

IC50 | Compound
0.0018 mM | COc1cccc(-c2ncc3c(n2)OCCN(c2ccccc2)C3=O)c1 [NCGC00413522-01]
0.00321 mM | COc1ccc(-c2ncc3c(n2)OCCN(c2ccccc2)C3=O)cc1F [NCGC00413523-01]
0.018 mM | CN1CCOc2nc(-c3cccc(OC(F)(F)F)c3)ncc2C1=O [NCGC00413529-01]
0.00805 mM | COc1ccc(CN2CCOc3nc(-c4cc5ccccc5o4)ncc3C2=O)cc1 [NCGC00413542-01]
0.00805 mM | COc1ccc(-c2ncc3c(n2)OCCN(CC2CC2)C3=O)cc1 [NCGC00413552-01]
0.0114 mM | O=C1c2cnc(-c3cccc(CO)c3)nc2OCCN1c1ccccc1 [NCGC00413559-01]
0.0161 mM | CN1CCOc2nc(-c3ccc(Oc4ccccc4)cc3)ncc2C1=O [NCGC00413560-01]
0.0114 mM | O=C1c2cnc(-c3ccc(CO)cc3)nc2OCCN1CC1CC1 [NCGC00413563-01]
0.0114 mM | COCCN1CCOc2nc(-c3cc(F)cc(OC)c3)ncc2C1=O [NCGC00413569-01]
0.0143 mM | O=C1c2cnc(-c3ccc(F)cc3)nc2OCCN1CC1CC1 [NCGC00413585-01]
0.00161 mM | O=C1c2cnc(-c3cc4ccccc4o3)nc2OCCN1Cc1ccccc1 [NCGC00413600-01]
0.018 mM | O=C1c2cnc(-c3ccsc3)nc2OCCN1c1ccccc1 [NCGC00413608-01]
0.0128 mM | CN(C)c1cccc(-c2ncc3c(n2)OCCN(c2ccccc2)C3=O)c1 [NCGC00413615-01]
0.018 mM | COc1ccc(-c2ncc3c(n2)OCCN(Cc2ccccc2)C3=O)cc1 [NCGC00413617-01]
0.0128 mM | COc1cccc(-c2ncc3c(n2)OCCN(Cc2ccccc2)C3=O)c1 [NCGC00413619-01]
0.0143 mM | O=C1c2cnc(-c3cccc(F)c3)nc2OCCN1c1ccccc1 [NCGC00413626-01]
0.0161 mM | COc1cccc(-c2ncc3c(n2)OCCN(Cc2ccc(F)cc2F)C3=O)c1 [NCGC00413648-01]
0.018 mM | O=C1c2cnc(-c3ccc(F)cc3F)nc2OCCN1CC1CC1 [NCGC00413656-01]
0.018 mM | CCOc1nccn2c(-c3ccc(CNC(=O)CNC(C)=O)cc3)cnc12 [NCGC00413921-01]

IC50 | Compound
0.0036 mM | O=c1c2nc(N3CCC(c4ccccc4)CC3)ccc2ncn1C1CC1 [NCGC00414736-01]
0.00568 mM | CN(c1ccccc1)c1ccc2ncn(C3CC3)c(=O)c2n1 [NCGC00414800-01]
0.0161 mM | Cc1oc(C(O)c2ccccc2F)nc1C(=O)Nc1ccc(N2CCOCC2)cc1 (stereo not shown) [NCGC00417991-01]
0.00313 mM | CNC(=O)CCn1ncc2cc(OCc3ccccc3-c3cccc(NC(C)=O)c3)ccc21 [NCGC00418019-01]
0.0161 mM | C[S+](=O)([O-])CCn1ncc2cc(OCc3cccc(-c4cccnc4)c3)ccc21 [NCGC00418034-01]
0.0161 mM | C[S+](=O)([O-])CCn1ncc2cc(OCc3cccc(-c4cccc(O)c4)c3)ccc21 [NCGC00418035-01]
0.0161 mM | C[S+](=O)([O-])CCn1ncc2cc(OCc3cccc(-c4ccc(F)cc4)c3)ccc21 [NCGC00418040-01]
0.0111 mM | CC(C)Oc1cccc(-c2cccc(COc3ccc4c(cnn4CC[S+](C)(=O)[O-])c3)c2)c1 [NCGC00418050-01]
0.0143 mM | C[S+](=O)([O-])CCn1ncc2cc(OCc3cccc(-c4ccccc4O)c3)ccc21 [NCGC00418051-01]
0.0064 mM | C[S+](=O)([O-])CCn1ncc2cc(OCc3cccc(-c4ccccc4)c3)ccc21 [NCGC00418095-01]
0.0161 mM | O=C(O)CCn1ncc2cc(OCc3ccc(-c4cccc(CO)c4)cc3)ccc21 [NCGC00418123-01]
0.0161 mM | Cc1ccccc1-c1ccc(COc2ccc3c(cnn3CCC(=O)O)c2)cc1 [NCGC00418125-01]
0.00101 mM | CC(=O)Nc1cccc(-c2ccc(COc3ccc4c(cnn4CCC(=O)O)c3)cc2)c1 [NCGC00418146-01]
0.00805 mM | Cc1ccc(-c2cccc(COc3cnc4c(ccn4CC(=O)O)c3)c2)cc1 [NCGC00418171-01]
0.0128 mM | COc1cccc(-c2cccc(COc3cnc4c(ccn4CC(=O)O)c3)c2)c1F [NCGC00418177-01]
0.0161 mM | COc1cccc(-c2cccc(COc3cnc4c(ccn4CC(=O)O)c3)c2)c1 [NCGC00418182-01]
0.0161 mM | CC(=O)Nc1cccc(-c2cccc(CCOc3cnc4c(ccn4CC(=O)O)c3)c2)c1 [NCGC00418203-01]
0.0143 mM | Cc1cnc(NC(=O)c2ccc3c(c2)OCC(=O)N(C)C3)s1 [NCGC00418511-01]
